The term Ki denotes a dissociation constant, usually derived from enzyme kinetics or from competition with a known ligand. For orientation: pKi means the Ki on a negative log10 scale, so that one unit is a factor of ten.

This is an account of results in US7202241B2, “Benzoxazine derivatives and uses thereof” (Roche Palo Alto LLC, priority 2003, dated 2007).

For the assay, the target named is T1, recombinant human 5-HT6 receptor (Homo sapiens, UniProt P50406).
T1 construct: expressed in transfected cells; membranes
T1 sequence (P50406 whole entry): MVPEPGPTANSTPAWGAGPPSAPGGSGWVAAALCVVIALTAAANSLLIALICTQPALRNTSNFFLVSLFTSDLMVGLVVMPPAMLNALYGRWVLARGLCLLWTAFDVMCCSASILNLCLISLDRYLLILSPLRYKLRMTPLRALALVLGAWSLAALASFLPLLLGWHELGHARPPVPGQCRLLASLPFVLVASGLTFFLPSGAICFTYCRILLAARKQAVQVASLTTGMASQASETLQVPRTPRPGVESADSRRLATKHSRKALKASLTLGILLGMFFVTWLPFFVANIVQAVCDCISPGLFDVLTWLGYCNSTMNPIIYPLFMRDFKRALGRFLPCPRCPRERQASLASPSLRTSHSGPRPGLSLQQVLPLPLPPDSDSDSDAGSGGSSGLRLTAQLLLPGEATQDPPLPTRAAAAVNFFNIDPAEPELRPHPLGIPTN
In words: in vitro radioligand binding, [3H]LSD competition in membranes of HEK293 cells expressing 5-HT6. The following applies: [3H]LSD (5 nM) displacement, HEK293 cell membranes, 60 min at 37° C., pH 7.4. The protocol: This example illustrates in vitro radioligand binding studies of compound of formula (I).
The binding activity of compounds of this invention in vitro was determined as follows. Duplicate determinations of ligand affinity are made by competing for binding of [^3H]LSD in cell membranes derived from HEK293 cells stably expressing recombinant human 5-HT6 receptor. This cell line was prepared by the method described by Monsma et al., Molecular Pharmacology, Vol. 43 pp. 320–327 (1993).
All determinations were made in assay buffer containing 50 mM Tris-HCl, 10 mM MgSO4, 0.5 mM EDTA, 1 mM ascorbic acid, pH 7.4 at 37° C., in a 250 microliter reaction volume. Assay tubes containing [^3H] LSD (5 nM), competing ligand, and membrane were incubated in a shaking water bath for 60 min. at 37° C., filtered onto Packard GF-B plates (pre-soaked with 0.3% PEI) using a Packard 96 well cell harvester and washed 3 times in ice cold 50 mM Tris-HCl. Bound [^3H] LSD was determined as radioactive counts per minute using Packard TopCount.
Displacement of [3H]LSD from the binding sites was quantified by fitting concentration-binding data to a 4-parameter logistic equation:
[formula] where Hill is the Hill slope, [ligand] is the concentration of competing radioligand and IC50 is the concentration of radioligand producing half-maximal specific binding of radioligand. The specific binding window is the difference between the Bmax and the basal parameters.
As to `O=S(=O)(c1ccccc1Cl)N1CCOc2c(N3CCNCC3)cccc21` [4-(2-Chloro-benzenesulfonyl)-8-piperazin-1-yl-3,4-dihydro-2H-benzo[1,4]oxazine], the Ki is 2.14 nM.
The same measure, in the same setting: under `CC1(C)CN(S(=O)(=O)c2ccccc2F)c2cccc(N3CCNCC3)c2O1` [4-(2-Fluoro-benzenesulfonyl)-2,2-dimethyl-8-piperazin-1-yl-3,4-dihydro-2H-benzo[1,4]oxazine] stands 0.209 nM; under `O=S(=O)(c1ccccc1F)N1CCOc2c(N3CCNCC3)cccc21` [4-(2-Fluoro-benzenesulfonyl)-8-piperazin-1-yl-3,4-dihydro-2H-benzo[1,4]oxazine], 1.26 nM.
With `O=S(=O)(c1cccc(Cl)c1)N1CC2(CCC2)Oc2c(N3CCNCC3)cccc21` [4-(3-Chloro-benzenesulfonyl)-2,2-spiro-cyclobutan-8-piperazin-1-yl-3,4-dihydro-2H-benzo[1,4]oxazine], the pKi stood at 9.30.
With `Cc1cc(N2CCNCC2)c2c(c1)N(S(=O)(=O)c1cccc(F)c1)CC(C)(C)O2` [4-(3-Fluoro-benzenesulfonyl)-2,2,6-trimethyl-8-piperazinyl-yl-3,4-dihydro-2H-benzo[1,4]oxazine], the Ki was 0.407 nM.
On to `O=S(=O)(c1cccc(F)c1)N1CC2(CCC2)Oc2c(N3CCNCC3)cccc21` [4-(3-Fluoro-benzenesulfonyl)-2,2-spiro-cyclobutan-8-piperazin-1-yl-3,4-dihydro-2H-benzo[1,4]oxazine], for which the Ki is 1.17 nM.
For the compound `Cc1cc(N2CCNCC2)c2c(c1)N(S(=O)(=O)c1cccc(F)c1)CCO2` [4-(3-Fluoro-benzenesulfonyl)-6-methyl-8-piperazin-1-yl-3,4-dihydro-2H-benzo[1,4]oxazine], the Ki is 2 nM.
Take `O=S(=O)(c1cccc(F)c1)N1CCOc2c(N3CCNCC3)cccc21` [4-(3-Fluoro-benzenesulfonyl)-8-piperazin-1-yl-3,4-dihydro-2H-benzo[1,4]oxazine]: the inhibition constant Ki is 11.2 nM.
With `CC1(C)CN(S(=O)(=O)c2ccccc2F)c2cc(F)cc(N3CCNCC3)c2O1` [6-Fluoro-4-(2-fluoro-benzenesulfonyl)-2,2-dimethyl-8-piperazin-1-yl-3,4-dihydro-2H-benzo[1,4]oxazine], the Ki is 0.209 nM.
Consider `O=S(=O)(c1ccccc1F)N1CCOc2c(N3CCNCC3)cc(F)cc21` [6-Fluoro-4-(2-fluoro-benzenesulfonyl)-8-piperazin-1-yl-3,4-dihydro-2H-benzo[1,4]oxazine], for which the inhibitory constant (Ki) is 0.724 nM.
